From patent US11078202B2, “β-lactamase inhibitor and use thereof” (priority 2018, dated 2021)
Where a name gives a salt, the structure may show the parent alone.

Assays:
Format in all cases: cell-based
[1] = test system: Klebsiella pneumoniae XNWB 0005; experiment: MIC assay of test compounds combined with ceftazidime (8 μg/mL); details: ceftazidime 8 μg/mL fixed
How it was run: (§1)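 MIC determined by CLSI-guided broth microdilution in CAMHB after 16-20 h at 35±2 °C, with growth and sterile control wells. Test compound series co-dosed with fixed-level ceftazidime or imipenem; inoculum from TSA-grown colonies, adjusted to OD600 0.1-0.15 then diluted 300-fold.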

[2] = test system: Klebsiella pneumoniae XNWB 0004; experiment: as above; details: ceftazidime 8 μg/mL fixed
How it was run: as §1

[3] = test system: Pseudomonas aeruginosa XNWB 0008; experiment: as above; details: ceftazidime 8 μg/mL fixed
How it was run: as §1

[4] = test system: Klebsiella pneumoniae XNWB 0001; experiment: as above; details: ceftazidime 8 μg/mL fixed
How it was run: as §1

[5] = test system: Klebsiella pneumoniae XNWB 0006; experiment: as above; details: ceftazidime 8 μg/mL fixed
How it was run: as §1

[6] = test system: Klebsiella pneumoniae XNWB 0002; experiment: as above; details: ceftazidime 8 μg/mL fixed
How it was run: as §1

[7] = test system: Acinetobacter baumannii XNWB 0007; experiment: as above; details: ceftazidime 8 μg/mL fixed
How it was run: as §1

[8] = test system: Klebsiella pneumoniae XNWB 0003; experiment: as above; details: ceftazidime 8 μg/mL fixed
How it was run: as §1

[9] = test system: Klebsiella pneumoniae XNWB 0005; experiment: MIC assay of test compounds combined with imipenem (4 μg/mL); details: imipenem 4 μg/mL fixed
How it was run: as §1

[10] = test system: Klebsiella pneumoniae XNWB 0004; experiment: as above; details: imipenem 4 μg/mL fixed
How it was run: as §1

[11] = test system: Pseudomonas aeruginosa XNWB 0008; experiment: as above; details: imipenem 4 μg/mL fixed
How it was run: as §1

[12] = test system: Klebsiella pneumoniae XNWB 0001; experiment: as above; details: imipenem 4 μg/mL fixed
How it was run: as §1

[13] = test system: Klebsiella pneumoniae XNWB 0006; experiment: as above; details: imipenem 4 μg/mL fixed
How it was run: as §1

[14] = test system: Klebsiella pneumoniae XNWB 0002; experiment: as above; details: imipenem 4 μg/mL fixed
How it was run: as §1

[15] = test system: Acinetobacter baumannii XNWB 0007; experiment: as above; details: imipenem 4 μg/mL fixed
How it was run: as §1

[16] = test system: Klebsiella pneumoniae XNWB 0003; experiment: as above; details: imipenem 4 μg/mL fixed
How it was run: as §1

Row | SMILES | The minimum concentration of test compounds combined with ceftazidime (8 μg/mL) for bacteriostasis [1] | The minimum concentration of test compounds combined with ceftazidime (8 μg/mL) for bacteriostasis [2] | The minimum concentration of test compounds combined with ceftazidime (8 μg/mL) for bacteriostasis [3] | The minimum concentration of test compounds combined with ceftazidime (8 μg/mL) for bacteriostasis [4] | The minimum concentration of test compounds combined with ceftazidime (8 μg/mL) for bacteriostasis [5] | The minimum concentration of test compounds combined with ceftazidime (8 μg/mL) for bacteriostasis [6] | The minimum concentration of test compounds combined with ceftazidime (8 μg/mL) for bacteriostasis [7] | The minimum concentration of test compounds combined with ceftazidime (8 μg/mL) for bacteriostasis [8] | The minimum concentration of test compounds combined with imipenem (4 μg/mL) for bacteriostasis [9] | The minimum concentration of test compounds combined with imipenem (4 μg/mL) for bacteriostasis [10] | The minimum concentration of test compounds combined with imipenem (4 μg/mL) for bacteriostasis [11] | The minimum concentration of test compounds combined with imipenem (4 μg/mL) for bacteriostasis [12] | The minimum concentration of test compounds combined with imipenem (4 μg/mL) for bacteriostasis [13] | The minimum concentration of test compounds combined with imipenem (4 μg/mL) for bacteriostasis [14] | The minimum concentration of test compounds combined with imipenem (4 μg/mL) for bacteriostasis [15] | The minimum concentration of test compounds combined with imipenem (4 μg/mL) for bacteriostasis [16]
1 | O=C(NC1CCNC1)[C@@H]1CC2(CC2)[C@@H]2CN1C(=O)N2OS(=O)(=O)O (stereo partly drawn) [Example 28, (1R,4S)-6-oxo-4-(pyrrolidin-3-ylaminoformyl)-5,7-diazaspiro[bicyclo[3.2.1]octane-2,1′-cyclopropan]-7-yl sulfate] | A (A: <8 μg/mL) | B (B: 8-16 μg/mL) | A (A: <8 μg/mL) | A (A: <8 μg/mL) | A (A: <8 μg/mL) | A (A: <8 μg/mL) | C (C: 16-128 μg/mL) | A (A: <8 μg/mL) | A (A: <8 μg/mL) | A (A: <8 μg/mL) | A (A: <8 μg/mL) | A (A: <8 μg/mL) | A (A: <8 μg/mL) | A (A: <8 μg/mL) | C (C: 16-128 μg/mL) | A (A: <8 μg/mL)
2 | N=C(N)N1CC(NCc2cc([C@@H]3CC4(CC4)[C@@H]4CN3C(=O)N4OS(=O)(=O)O)no2)C1 [Example 51, (1R,4S)-4-(5-(((1-amidinoazetidin-3-yl)amino)methyl)isoxazol-3-yl)-6-oxo-5,7-diazaspiro[bicyclo[3.2.1]octane-2,1′-cyclopropan]-7-yl sulfate] | B (B: 8-16 μg/mL) | C (C: 16-128 μg/mL) | B (B: 8-16 μg/mL) | A (A: <8 μg/mL) | A (A: <8 μg/mL) | A (A: <8 μg/mL) | C (C: 16-128 μg/mL) | B (B: 8-16 μg/mL) | A (A: <8 μg/mL) | A (A: <8 μg/mL) | A (A: <8 μg/mL) | A (A: <8 μg/mL) | A (A: <8 μg/mL) | A (A: <8 μg/mL) | C (C: 16-128 μg/mL) | A (A: <8 μg/mL)
3 | N=C(N)NCCc1cc([C@@H]2CC3(CC3)[C@@H]3CN2C(=O)N3OS(=O)(=O)O)no1 [Example 36, (1R,4S)-4-(5-(2-guanidinoethyl)isoxazol-3-yl)-6-oxo-5,7-diazaspiro[bicyclo[3.2.1]octane-2,1′-cyclopropan]-7-yl sulfate] | A (A: <8 μg/mL) | B (B: 8-16 μg/mL) | B (B: 8-16 μg/mL) | A (A: <8 μg/mL) | A (A: <8 μg/mL) | A (A: <8 μg/mL) | C (C: 16-128 μg/mL) | A (A: <8 μg/mL) | A (A: <8 μg/mL) | A (A: <8 μg/mL) | A (A: <8 μg/mL) | A (A: <8 μg/mL) | A (A: <8 μg/mL) | A (A: <8 μg/mL) | C (C: 16-128 μg/mL) | A (A: <8 μg/mL)
